Measured values: patent US20230255943A1, “MMP-9 AND MMP-12 INHIBITION FOR TREATING SPINAL CORD INJURY OR RELATED INJURY TO NEUROLOGICAL TISSUE” (The University of Birmingham, priority 2020, published 2023)

Key:
[1] = test system: mice with DC crush injury; assay: Spinal cord water content (oedema) after DC crush injury in mice; type: in vivo, mouse; conditions: 3 days after DC injury; doses and routes of Table 1; vs DC+vehicle
Experimental: For oral delivery of AZD1236, n=6 adult male C57BL6 mice/group (Charles River, Margate, UK) were randomly allocated to either: (1), Sham (control; partial laminectomy but no DC crush injury); (2), DC crush injury+vehicle (partial laminectomy followed by DC crush injury and injection of vehicle); (3), DC crush injury+100 mg/kg AZD1236; (4), DC crush injury+200 mg/kg AZD1236; and (5), DC crush injury+300 mg/kg AZD1236. For intrathecal (it) delivery of AZD1236, adult male C57BL6 mice (25-30 g) (Charles River, Margate, UK) were randomly allocated to either: (1), Sham (control; partial laminectomy but no DC crush injury); (2), DC crush injury+vehicle (partial laminectomy followed by DC crush injury and injection of vehicle); (3), DC crush injury+2.5 mg/kg AZD1236; (4), DC crush injury+5 mg/kg AZD1236; and (5), DC crush injury+10 mg/kg AZD1236. For intrathecal delivery an indwelling atlanto-occipital intrathecal catheter was inserted into the intrathecal space, as described previously (F. A. Oladosu, B. P. Ciszek, S. C. O'Buckley, A. G. Nackley, Novel intrathecal and subcutaneous catheter delivery systems in the mouse. J Neurosci Methods 264, 119-128 (2016)). Briefly, with mice in the sternal recumbency a small incision was made at the nape of the neck followed by detachment of the muscles on either side of the external occipital crest to expose the A-O membrane. The membrane was incised and a 6 cm Alzet mouse intrathecal catheter (Alzet, Cupertino, Calif., USA) and polyurethane segments were gently guided 2.5 cm into the intrathecal space. The catheter was secured using 4-0 silk sutures (Oasis Medical, IL) and the exposed end of the catheter was sealed off with a stainless-steel plug and affixed to the upper back. Animals were injected immediately with vehicle or AZD1236 followed by a 10 μl PBS catheter flush. Injections were repeated every twice daily for the first 3 days after injury and drugs and vehicle reagents were delivered over 1 min time period using a Hamilton microlitre syringe (Hamilton Co, USA). Where specified intact animals with no surgical procedures were also used. All lesions were administered under 5% isofluorane induced inhalation anaesthesia, with 1.51/min O2. Pre- and post-injury analgesia was also provided.
DC crush injury was administered bilaterally at the T8 vertebral level as described previously (S. Surey, M. Berry, A. Logan, R. Bicknell, Z. Ahmed, Differential cavitation, angiogenesis and wound-healing responses in injured mouse and rat spinal cords. Neuroscience 275, 62-80 (2014); M. L. Read, S. Mir, R. Spice, R. J. Seabright, E. L. Suggate, Z. Ahmed, M. Berry, A. Logan, Profiling RNA interference (RNAi)-mediated toxicity in neural cultures for effective short interfering RNA design. J Gene Med 11, 523-534 (2009)). Briefly, calibrated watchmaker's forceps were separated by 0.5 mm and inserted through the dorsal cord meninges to a depth of 0.45 mm in mice and separated by 1 mm and inserted through the dorsal cord meninges to a depth of 1.0 mm in rats, and the DC were crushed for 3 seconds. AZD1236 or vehicle was administered twice daily by oral gavage or intrathecally, either immediately for the first 3 days or 24 hours after injury and treating twice daily until day 4 (i.e. 3 days of AZD1236 dosing). All experiments were performed with n=6 mice/group and repeated on at least 2-3 independent occasions (total=12-18 animals/group/test).
The lesion site+3 mm either side for mice and the lesion site+5 mm either side for the rat DC model were dissected out and the water content of the spinal cord (as a measure of oedema) was determined at 3 days after DC and CC SCI, as described previously (S. Li, C. H. Tator, Effects of MK801 on evoked potentials, spinal cord blood flow and cord edema in acute spinal cord injury in rats. Spinal Cord 37, 820-832 (1999)). Spinal cords containing the lesion site were weighed on aluminium foil, dried at 105° C. for 24 hr, and re-weighed. […]

[2] = test system: J774A.1, RAW 264.7 and primary mouse peritoneal macrophages; assay: Transwell migration assay of macrophages; type: cell-based; conditions: J774A.1 and RAW 264.7, 3 h
Experimental: J774A.1 cells (#TIB-67; ATCC, Middlesex, UK) were cultured in DMEM supplemented with 10% FBS, 100 U/ml penicillin, 100 μg/ml streptomycin, and 0.25 μg amphotericin B. Cells were seeded in T75 tissue-culture flasks and maintained at 37° C. and 5% CO2. RAW 264.7 cells (#TIB-71; ATCC) were maintained in DMEM containing 10% FBS.
Resident peritoneal cells were harvested from adult C57BL/6 mice (6-8 weeks old) by injection of 10 ml of PBS using a 21G needle into the peritoneal cavity and harvesting the cell suspension, as described previously (Rosas M, Davies L C, Giles P J, Liao C T, Kharfan B, Stone T C, et aL. The transcription factor Gata6 links tissue macrophage phenotype and proliferative renewal. Science 2014; 344(6184): 645-8). Peritoneal cells were then centrifuged at 100×g for 10 min and the cell pellet resuspended in DMEM/F12 medium. Cell were incubated at 37° C., for 2 h and non-adherent cells were removed by gentle washing. Cells were expanded in DMEM/F12 medium containing 10% FBS. For migration assays, cells were grown in RPMI containing 0.02% BSA for 24 h to obtain quiescent cells prior to using them in Transwell migration assays as described below.
Migration assays were performed with J774A.1, RAW 264.7 and primary mouse peritoneal macrophages in 6.5 mm Transwell plates (ThermoFisher) with 8 μm pore inserts, as described previously (Green et al., 2012). Briefly, inserts were coated with rat tail type I collagen and 1×10^5 cells (J774A.1, RAW 264.7 or primary mouse macrophages) were resuspended in chemotaxis buffer (RMPI 1640 plus 0.02% BSA, (termed RPMI from herein)) and added to the upper chamber and incubated with migration medium, with or without known chemotactic factors MCP-1 (100 ng/ml) and PMA (100 nM), or AZD1236, GM6001, SD2590 and MMP-9 Inhibitor I (all used at 1, 10, 100, 1000 ng/ml) added to the lower chamber. Cells were allowed to migrate through the insert membrane for 3 h at 37° C., before washing inserts with PBS. Non-migrating cells remaining on the upper surface were removed with a cotton swab whilst the migrated cells on the insert were fixed, stained with Diff-Quick (#26096, Electron Microscopy Science, Hatfield, UK), and mounted on glass slides. Migration was measured visually by counting using a light microscope at 40× magnification. The mean number of cells in 10 random fields were calculated for each treatment by an experimenter masked to the treatment conditions. A migration index was calculated by dividing the number of cells that migrated in response to the chemokine by the number of cells that migrated randomly (RPMI medium) with a reference index>1, indicating chemotaxis.

IL-1β, TNF-α and IL-6 [3] = assay: Proinflammatory pain markers after CC SCI in mice; type: in vivo, mouse; conditions: oral gavage immediately after injury
Experimental: CC SCI was administered at the T7-T8 vertebral level after exposure of T6-T9 by laminectomy. The aneurysm clip applicator was oriented in a bilateral direction and an aneurysm clip with a closing force of 24 g was applied extradurally for 60 s, as described previously (A. S. Rivlin, C. H. Tator, Effect of duration of acute spinal cord compression in a new acute cord injury model in the rat. Surg Neurol 10, 38-43 (1978):E. Esposito, I. Paterniti, E. Mazzon, T. Genovese, M. Galuppo, R. Meli, P. Bramanti, S. Cuzzocrea, MK801 attenuates secondary injury in a mouse experimental compression model of spinal cord trauma. BMC Neurosci 12, 31 (2011)).
The urinary bladders were manually emptied twice daily until bladder function was regained. Adult male C57BL6 mice (25-30 g) (Charles River, Margate, UK) were randomly allocated to either: (1), Sham (control; laminectomy but no CC SCI); (2), CC SCI+vehicle; (3), CC SCI+200 mg/kg AZD1236 (oral); (4), CC SCI+5 mg/kg AZD1236 (it). All experiments were performed with n=6 mice/group and repeated on 3 independent occasions (total=18 mice/group/test).
The lesion site+5 mm either side (DC and CC SCI, n=6 mice/rats/group, 2 independent repeats (total n=12 mice/rats/group)) was dissected and rapidly frozen in liquid N2 and stored at −80° C. until required. […] The levels of mRNA of MMP-9, MMP-12, IL-1β, TNF-α and IL-6 were determined using pre-validated mouse primer sequences from complimentary DNA prepared from extracted mRNA and qRT-PCR was performed using a LightCycler PCR machine (Roche, Burgess Hill, UK) (M. L. Read, S. Mir, R. Spice, R. J. Seabright, E. L. Suggate, Z. Ahmed, M. Berry, A. Logan, Profiling RNA interference (RNAi)-mediated toxicity in neural cultures for effective short interfering RNA design. J Gene Med 11, 523-534 (2009)). […] Fold changes were computed using the ΔΔCt method (M. L. Read, S. Mir, R. Spice, R. J. Seabright, E. L. Suggate, Z. Ahmed, M. Berry, A. Logan, Profiling RNA interference (RNAi)-mediated toxicity in neural cultures for effective short interfering RNA design. J Gene Med 11, 523-534 (2009).

SCI-induced oedema = assay: Example 3: spinal cord water content with aquaporin-4 relocalisation inhibitors; conditions: in vivo
Experimental: (§1) The lesion site+3 mm either side for mice and the lesion site+5 mm either side for the rat DC model were dissected out and the water content of the spinal cord (as a measure of oedema) was determined at 3 days after DC and CC SCI, as described previously (S. Li, C. H. Tator, Effects of MK801 on evoked potentials, spinal cord blood flow and cord edema in acute spinal cord injury in rats. Spinal Cord 37, 820-832 (1999)). Spinal cords containing the lesion site were weighed on aluminium foil, dried at 105° C. for 24 hr, and re-weighed. The percent water content was calculated as: water content (%)=[(wet weight-dry weight)/wet weight]×100%.
Using similar techniques to those described in Example 1, the water content in the spinal cord as a measure of injury-induced oedema was determined for various agents and aquaporin-4 inhibitors, namely TFP, PKAi, PKCi and TGN-020—see FIG. 21.

IL-1β, TNF-α and IL-6 [4] = assay: Proinflammatory pain cytokines after DC injury in rats; type: in vivo; conditions: rat DC injury, oral
Experimental: The efficacy of oral AZD3342 in the DC injury model in adult Sprague-Dawley rat was also assessed. Animals were divided into 6 groups: (1), Sham (control); (2), DC crush injury+Vehicle; (3), DC crush injury+15 mg/kg AZD3342; (4), DC crush injury+75 mg/kg […]; (5), DC crush injury+375 mg/kg AZD3342; and (6), DC crush injury+Melatonin. Animals were dosed twice daily with oral AZD3342 or vehicle with the experimenters masked to the treatment conditions. These experiments were performed with n=6 rats/group and repeated on 2-3 independent occasions (total n=12-18 rats/group/test).
The lesion site+5 mm either side (DC and CC SCI, n=6 mice/rats/group, 2 independent repeats (total n=12 mice/rats/group)) was dissected and rapidly frozen in liquid N2 and stored at −80° C. until required. […] The levels of mRNA of MMP-9, MMP-12, IL-1β, TNF-α and IL-6 were determined using pre-validated mouse primer sequences from complimentary DNA prepared from extracted mRNA and qRT-PCR was performed using a LightCycler PCR machine (Roche, Burgess Hill, UK) (M. L. Read, S. Mir, R. Spice, R. J. Seabright, E. L. Suggate, Z. Ahmed, M. Berry, A. Logan, Profiling RNA interference (RNAi)-mediated toxicity in neural cultures for effective short interfering RNA design. J Gene Med 11, 523-534 (2009)). […]

[5] = test system: rats with DC crush injury; assay: Spinal cord water content after DC injury in rats; type: in vivo; conditions: rat DC injury, oral, 3 days
Experimental: DC crush injury was administered bilaterally at the T8 vertebral level as described previously (S. Surey, M. Berry, A. Logan, R. Bicknell, Z. Ahmed, Differential cavitation, angiogenesis and wound-healing responses in injured mouse and rat spinal cords. Neuroscience 275, 62-80 (2014); M. L. Read, S. Mir, R. Spice, R. J. Seabright, E. L. Suggate, Z. Ahmed, M. Berry, A. Logan, Profiling RNA interference (RNAi)-mediated toxicity in neural cultures for effective short interfering RNA design. J Gene Med 11, 523-534 (2009)). […]
The efficacy of oral AZD3342 in the DC injury model in adult Sprague-Dawley rat was also assessed. […]
as §1, with “Spinal cords containing the lesion site were weighed on aluminium foil, dried at 105° C. for 24 hr, and re-weighed.” left out

[6] = test system: mice with DC crush injury; assay: CSF biomarkers of SCI (S100β, NSE, GFAP, pNF-H, NF-L); type: in vivo, mouse; conditions: 3 d after injury
[7] = test system: mice with DC crush injury; assay: Spinal cord water content (oedema) after DC crush injury in mice; type: in vivo, mouse; conditions: IP, twice daily

## Nc1nc2ccc(OC(F)(F)F)cc2s1 [Riluzole, reference compound]
[1]
  spinal cord water content, comparison of MMP inhibitors (FIG. 4): significantly reduced spinal cord water content

## MCP-1: known chemotactic factor, positive control in migration assay
[2]
  macrophage migration (migration index, chemotaxis): stimulated significant chemotaxis

## COc1ccc(Cl)cc1C(=O)NCCc1ccc(S(=O)(=O)NC(=O)NC2CCCCC2)cc1 [Glibenclamide, reference compound]
[1]
  spinal cord water content, comparison of MMP inhibitors (FIG. 4): significantly reduced spinal cord water content

## CC(C)C[C@H](CN)CC(=O)O [pregabalin]
IL-1β, TNF-α and IL-6 [3]
  proinflammatory pain markers after CC injury, comparison with pain medications (FIG. 7): much less effective

## CCCCCCCCCCCCCC(=O)O[C@@H]1[C@@H](C)[C@@]2(O)[C@@H](C=C(CO)C[C@]3(O)C(=O)C(C)=C[C@@H]23)[C@@H]2C(C)(C)[C@]12OC(C)=O [PMA]
[2]
  macrophage migration (migration index, chemotaxis): stimulated significant chemotaxis

## CN1CCN(CCCN2c3ccccc3Sc3ccc(C(F)(F)F)cc32)CC1 [TFP, trifluoperazine]
SCI-induced oedema
  SCI-induced oedema, water content (FIG. 21): suppress SCI-induced oedema

## NCC1(CC(=O)O)CCCCC1 [gabapentin]
IL-1β, TNF-α and IL-6 [3]
  proinflammatory pain markers after CC injury, comparison with pain medications (FIG. 7): much less effective

## COc1ccc2[nH]cc(CCNC(C)=O)c2c1 [melatonin, reference compound]
IL-1β, TNF-α and IL-6 [4]
  expression of proinflammatory pain cytokines: small effect
[5]
  SCI-induced edema (spinal cord water content): marginal effect
[6]
  levels of S100β, NSE, GFAP, pNF-H and NF-L in CSF: marginally reduced
[1]
  spinal cord water content, comparison of MMP inhibitors (FIG. 4): significantly reduced spinal cord water content

## COC(=O)Nc1ccc2oc3cc(S(=O)(=O)N[C@@H](C(=O)O)C(C)C)ccc3c2c1 [MMP408]
[7]
  SCI-induced oedema with tool inhibitors singly or in combination (FIG. 3D): suboptimal therapeutic benefits
